Measured values from patent US8927547B2, “Pyrimidine derivatives” (Noviga Research AB, priority 2010, dated 2015).
pEC50: −log10 of the molar value.

Columns and labels:
Assay type in all cases: cell-based
[1] = test system: HCT116; test: FMCA, HCT116 colon cancer; conditions: Homo sapiens, HCT-116, read-out: EC50 (μM) in various cancer cell lines: HCT116
Excerpt: (§1) The Fluorometric Microculture Cytotoxicity Assay, FMCA, is a three day non-clonogenic microplate-based cell viability assay used for measurement of the cytotoxic and/or cytostatic effect of compounds in vitro (Lindhagen, E., et al. Nat Protoc, 2008. 3(8): p. 1364-9). FMCA (Larsson, R. and P. Nygren, Anticancer Res, 1989. 9(4): p. 1111-9) represents a valuable method to measure cytotoxicity in a number of cell types, both cell lines and primary cells from patients (Larsson, R., et al., Int J Cancer, 1992. 50(2): p. 177-85; Fridborg, H., et al., Eur J Cancer, 1999. 35(3): p. 424-32; Dhar, S., et al., Br J Cancer, 1996. 74(6): p. 888-96).
(§2) FMCA is based on the principle that fluorescein diacetate (FDA) is converted to the fluorescent probe fluorescein by esterases in the plasma membranes of living cells. For experiments, 96 or 384-well microplates are prepared with compounds and stored at −70° C. until use. Cells are then seeded into the drug-prepared plates and placed in an incubator for 72 h. On the last day of incubation, the plates are washed and a buffer containing FDA is added and incubated with the cells for 45 minutes. Finally the fluorescence per well is measured in a fluorometer and a Survival Index % (SI) for each compound-treated well is calculated with the equation: Compound-treated cells minus blank divided by control cells minus blank. A high SI-value indicates a large percentage of living cells and vice versa.
(§3) Compounds of the invention as well as kinase inhibitors sorafenib, sunitinib, dasatinib, and pazopanib (reference compounds) were diluted with PBS to a concentration which was ten-times higher than the desired starting concentration. Then, a Biomek 2000 liquid handling system was employed to serially dilute the compounds in a deep-well 384-well plate. From this plate, assay plates containing 5 μl compound per well were prepared with the Biomek 2000. Certain compounds precipitated when diluted with PBS, and these compounds were therefore prepared in a 96-well plate manually as described above using culture medium RPMI 1640 instead of PBS.
(§4) The compounds were also tested at five concentrations, with five times serial dilution on the following cell types: CCRF-CEM, hTERT-RPE1 (normal retinal epithelial cells), hRPTEpiC (normal renal cells) and PBMC (peripheral blood mononuclear cells). Each experiment was performed three times, except for PBMC and hRPTEpiC, which were performed twice. SI-values were calculated, graphs were plotted using GraphPadPrism 5.0 (GraphPad Software Inc. La Jolla, Calif.) and EC50-values for each cell type and compound were determined from the curves.
(§5) The compounds of the invention were also tested on further cancer cell lines related to colon cancer (HCT116; see e.g Brattain M G, et al. Cancer Res. 1981, 41, 1751-1756), breast cancer (MCF7; see e.g. Soule H D, et al. J. Natl. Cancer Inst. 1973, 51, 1409-1416), teniposide-resistant leukaemia (CEM/VM1; see e.g. Danks M K et al. Cancer Res. 1987, 47, 1297-1301), lung cancer (H69; see e.g. Gazdar A F, et al. Cancer Res. 1980, 40, 3502-3507), doxorubicin-resistant lung cancer (H69AR; see e.g. Mirski S E, et al. Cancer Res. 1987, 47, 2594-2598), myeloma (RPMI 8226; see e.g. Matsuoka Y, et al. Proc. Soc. Exp. Biol. Med. 1967, 125, 1246-1250), doxorubicin-resistant myeloma (8226/Dox40; see e.g. Dalton W S et al. Blood 1989, 15,747-752), lymphoma (U-937, see e.g. Sundstrom C, et al. Int. J. Cancer 1976, 17, 565-577), vincristin-resistant lymphoma (U-937-vcr; see e.g. Botling J, et al. Int J Cancer 1994, 15; 58 (2), 269-274), ovarian cancer (A2780; see e.g. Hamilton T C, et al. Semin Oncol. 1984, 11, 285-298), doxorubicin-resistant ovarian cancer (A2780/Adr), cisplatin-resistant ovarian cancer (A2780/Cis; see e.g. Behrens B C, et al. Cancer Res. 1987, 47, 414-418), renal cancer (ACHN; see e.g. Borden E C, et al. Cancer Res. 1982, 42(12), 4948-4953), pancreatic cancer (PANC-1, BxPC-3, and MIA PaCa-2; see e.g. Lieber M, et al. Int. […]

[2] = test system: ACHN; test: FMCA, ACHN renal cancer; conditions: Homo sapiens, read-out: EC50 (μM) in various cancer cell lines: ACHN
Excerpt: as §1, §2, §3, §4, §5

[3] = test system: A2780; test: FMCA, A2780 ovarian cancer; conditions: Homo sapiens, read-out: EC50 (μM) in various cancer cell lines: A2780
Excerpt: as §1, §2, §3, §4, §5

[4] = test system: CEM/VM1; test: FMCA, CEM/VM1 teniposide-resistant leukaemia; conditions: Homo sapiens, read-out: EC50 (μM) in various cancer cell lines: CEM/VM1
Excerpt: as §1, §2, §3, §4, §5

[5] = test system: MCF7; test: FMCA, MCF7 breast cancer; conditions: Homo sapiens, read-out: EC50 (μM) in various cancer cell lines: MCF7
Excerpt: as §1, §2, §3, §4, §5

[6] = test system: H69; test: FMCA, H69 lung cancer; conditions: Homo sapiens, NCI-H69, read-out: EC50 (μM) in various cancer cell lines: H69
Excerpt: as §1, §2, §3, §4, §5

[7] = test system: U-937; test: FMCA, U-937 lymphoma; conditions: Homo sapiens, read-out: EC50 (μM) in various cancer cell lines: U-937
Excerpt: as §1, §2, §3, §4, §5

[8] = test system: 8226/Dox40; test: FMCA, 8226/Dox40 doxorubicin-resistant myeloma; conditions: read-out: EC50 (μM) in various cancer cell lines: 8226/Dox40
Excerpt: as §1, §2, §3, §4, §5

[9] = test system: RPMI 8226; test: FMCA, RPMI 8226 myeloma; conditions: Homo sapiens, read-out: EC50 (μM) in various cancer cell lines: RPMI 8226
Excerpt: as §1, §2, §3, §4, §5

[10] = test system: A2780/Cis; test: FMCA, A2780/Cis cisplatin-resistant ovarian cancer; conditions: A2780cis, read-out: EC50 (μM) in various cancer cell lines: A2780/Cis
Excerpt: as §1, §2, §3, §4
(§6) The compounds of the invention were also tested on further cancer cell lines related to colon cancer (HCT116; see e.g Brattain M G, et al. Cancer Res. 1981, 41, 1751-1756), breast cancer (MCF7; see e.g. Soule H D, et al. J. Natl. Cancer Inst. 1973, 51, 1409-1416), teniposide-resistant leukaemia (CEM/VM1; see e.g. Danks M K et al. Cancer Res. 1987, 47, 1297-1301), lung cancer (H69; see e.g. Gazdar A F, et al. Cancer Res. 1980, 40, 3502-3507), doxorubicin-resistant lung cancer (H69AR; see e.g. Mirski S E, et al. Cancer Res. 1987, 47, 2594-2598), myeloma (RPMI 8226; see e.g. Matsuoka Y, et al. Proc. Soc. Exp. Biol. Med. 1967, 125, 1246-1250), doxorubicin-resistant myeloma (8226/Dox40; see e.g. Dalton W S et al. Blood 1989, 15,747-752), lymphoma (U-937, see e.g. Sundstrom C, et al. Int. […]

[11] = test system: A2780/Adr; test: FMCA, A2780/Adr doxorubicin-resistant ovarian cancer; conditions: read-out: EC50 (μM) in various cancer cell lines: A2780/Adr
Excerpt: as §1, §2, §3, §4, §6

[12] = test system: CCRF-CEM cancer cells - leukaemia; test: Fluorometric Microculture Cytotoxicity Assay (FMCA), CCRF-CEM; conditions: Homo sapiens, 72 h incubation
Excerpt: as §1, §2
In subsequent experiments, compounds were tested, along with kinase inhibitors (dasatinib, pazopanib, sorafenib, and sunitinib) as described above. Initially, the acute lymphoblastic leukaemia cell line CCRF-CEM (see e.g. Foley G E, et al. Cancer 1965, 18, 522-529) was used throughout. In the assay plates, medium was added to six empty wells (blank wells) and wells were filled with PBS and cell suspension and served as control wells. SI-values were then calculated for each compound-treated well as described above. All experiments were conducted twice and a new batch of plates was prepared for each experiment.
For dose-response experiments, 384-well plates were prepared as follows:
as §3, §4

[13] = test system: U-937-vcr; test: FMCA, U-937-vcr vincristin-resistant lymphoma; conditions: read-out: EC50 (μM) in various cancer cell lines: U-937-ver
Excerpt: as §1, §2, §3, §4, §5

[14] = test system: MIA PaCa-2; test: FMCA, MIA PaCa-2 pancreatic cancer; conditions: Homo sapiens, read-out: EC50 (μM) in various cancer cell lines: MIA PaCa-2
Excerpt: as §1
as §2, with “versa. […]” for “versa.”
(§7) The compounds were also tested at five concentrations, with five times serial dilution on the following cell types: CCRF-CEM, hTERT-RPE1 (normal retinal epithelial cells), hRPTEpiC (normal renal cells) and PBMC (peripheral blood mononuclear cells). […] SI-values were calculated, graphs were plotted using GraphPadPrism 5.0 (GraphPad Software Inc. La Jolla, Calif.) and EC50-values for each cell type and compound were determined from the curves. […]

[15] = test system: H69AR; test: FMCA, H69AR doxorubicin-resistant lung cancer; conditions: Homo sapiens, read-out: EC50 (μM) in various cancer cell lines: H69 AR
Excerpt: as §1, §2, §3, §4, §5

[16] = test system: PANC-1; test: FMCA, PANC-1 pancreatic cancer; conditions: Homo sapiens, read-out: EC50 (μM) in various cancer cell lines: PANC-1
Excerpt: as §1
as §2, with “versa. […]” for “versa.”
as §7

[17] = test system: BxPC-3; test: FMCA, BxPC-3 pancreatic cancer; conditions: Homo sapiens, read-out: EC50 (μM) in various cancer cell lines: BxPC-3
Excerpt: as §1
as §2, with “versa. […]” for “versa.”
as §7

## c1cc(Nc2nccc(NCc3ccc4[nH]ccc4c3)n2)c2cc[nH]c2c1 [Example 1, N^4-(1H-indol-5-ylmethyl)-N^2-(1H-indol-4-yl)pyrimidine-2,4-diamine]
[1]
  EC50: 6.7 µM
[2]
  EC50: 2.54 µM
[3]
  EC50: 0.7 µM
[4]
  EC50: 0.12 µM
[5]
  EC50: 9 µM
[6]
  EC50: 10.8 µM
[7]
  EC50: 0.07 µM
[8]
  EC50: 0.37 µM
[9]
  EC50: 0.5 µM
[10]
  EC50: 0.35 µM
[11]
  EC50: 2.4 µM
[12]
  pEC50: 6.48
[13]
  EC50: 0.07 µM

## COc1ccc2[nH]cc(CCNc3nccc(NCc4ccc5[nH]ccc5c4)n3)c2c1 [Example 12, N^4-(1H-indol-5-ylmethyl)-N^2-[2-(5-methoxy-1H-indol-3-yl)ethyl]pyrimidine-2,4-diamine]
[14]
  EC50: < 0.1 µM
[1]
  EC50: 0.63 µM
[2]
  EC50: 1.9 µM
[3]
  EC50: 0.47 µM
[4]
  EC50: 0.17 µM
[15]
  EC50: 0.27 µM
[5]
  EC50: 3.88 µM
[6]
  EC50: 7.84 µM
[7]
  EC50: 0.27 µM
[8]
  EC50: 1.81 µM
[9]
  EC50: 0.53 µM
[10]
  EC50: 0.61 µM
[16]
  EC50: < 0.1 µM
[17]
  EC50: < 0.1 µM
[11]
  EC50: 1.9 µM
[12]
  pEC50: 6.12
[13]
  EC50: 0.3 µM

## c1cc(Nc2nccc(NCc3ccc4[nH]cnc4c3)n2)c2cc[nH]c2c1 [Example 19, N^4-(1H-benzo[d]imidazol-5-ylmethyl)-N^2-(1H-indol-4-yl)pyrimidine-2,4-diamine]
[14]
  EC50: < 1 µM
[1]
  EC50: 9.83 µM
[2]
  EC50: 25.2 µM
[3]
  EC50: 1.59 µM
[4]
  EC50: 1.33 µM
[5]
  EC50: 28.5 µM
[6]
  EC50: 30.7 µM
[7]
  EC50: 1.47 µM
[8]
  EC50: 46.3 µM
[9]
  EC50: 12.8 µM
[10]
  EC50: 1.99 µM
[16]
  EC50: < 1 µM
[17]
  EC50: < 1 µM
[11]
  EC50: 12.6 µM
[12]
  pEC50: 5.99
[13]
  EC50: 1.81 µM

## Cc1cc2cc(Nc3ccnc(NCc4ccc5[nH]ccc5c4)n3)ccc2[nH]1 [Example 24, N^2-(1H-indol-5-ylmethyl)-N^4-(2-methyl-1H-indol-5-yl)pyrimidine-2,4-diamine]
[1]
  EC50: 0.51 µM
[2]
  EC50: 1.26 µM
[3]
  EC50: 0.28 µM
[4]
  EC50: 0.21 µM
[15]
  EC50: 0.46 µM
[5]
  EC50: 4.43 µM
[6]
  EC50: 9.35 µM
[7]
  EC50: 0.19 µM
[8]
  EC50: 0.41 µM
[9]
  EC50: 0.23 µM
[10]
  EC50: 0.22 µM
[11]
  EC50: 0.6 µM
[12]
  pEC50: 6.42
[13]
  EC50: 0.19 µM

## Cc1cc(NCc2ccc3[nH]ncc3c2)nc(Nc2cccc3[nH]ccc23)n1 [Example 37, N^4-(1H-indazol-5-ylmethyl)-N^2-(1H-indol-4-yl)-6-methylpyrimidine-2,4-diamine]
[14]
  EC50: < 0.1 µM
[1]
  EC50: 6.2 µM
[2]
  EC50: 3.08 µM
[3]
  EC50: 0.45 µM
[4]
  EC50: 0.23 µM
[5]
  EC50: 4.92 µM
[6]
  EC50: 11.6 µM
[7]
  EC50: 0.29 µM
[8]
  EC50: 2.02 µM
[9]
  EC50: 0.81 µM
[10]
  EC50: 0.32 µM
[16]
  EC50: < 0.1 µM
[17]
  EC50: < 0.1 µM
[11]
  EC50: 1.71 µM
[12]
  pEC50: 6.38
[13]
  EC50: 0.34 µM
